Experimental findings from PubChem BioAssay (NCI) are described below.

SMILES strings stand for the structures.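 Assay format: 96-well plates, 48-hour exposure. TGI: concentration producing complete growth inhibition.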 Where only a bound is given, the exact number is not on record here.

Some test systems named below: 786-0 renal; BT-549 breast; CAKI-1 renal; CCRF-CEM leukemia; M14 melanoma; RXF 393 renal; SK-MEL-28 melanoma; SR leukemia; T-47D breast; DLD-1 colon; DMS 273 small cell lung; M19-MEL melanoma; SNB-78 CNS.
What all share (experiment): NCI tumour cell line growth inhibition, 48 h

`Clc1ccc2oc(CCc3ccccc3)nc2c1`: the TGI is above 100 µM with 786-0 renal; above 100 µM in the assay with BT-549 breast; above 100 µM in the assay with CAKI-1 renal; above 100 µM with CCRF-CEM leukemia; above 100 µM with M14 melanoma; 99.3 µM in the assay with RXF 393 renal. Also, the TGI in the assay with SK-MEL-28 melanoma, in the assay with SR leukemia and in the assay on T-47D breast was above 100 µM in each case.
Regarding `Cc1cnc2c(c1C)C(=O)c1ccccc1C2=O`, the TGI in the assay on 786-0 renal, with BT-549 breast, in the assay with CAKI-1 renal, in the assay with CCRF-CEM leukemia, with M14 melanoma and with RXF 393 renal was above 100 µM throughout. In addition, the TGI in the assay on SK-MEL-28 melanoma, with SR leukemia and with T-47D breast was above 100 µM in each case.
Regarding `CN(CCCNC(=O)c1cc(-c2ccccc2)nc2ccccc12)CCCNC(=O)c1cc(-c2ccccc2)nc2ccccc12`, the TGI is 3.18 µM in the assay with 786-0 renal; 26.8 µM in the assay on BT-549 breast; 22.7 µM with CAKI-1 renal; 17.6 µM in the assay on CCRF-CEM leukemia; 3.17 µM in the assay on M14 melanoma; 16 µM with RXF 393 renal. Also, the TGI in the assay with SK-MEL-28 melanoma stood at 3.27 µM; with SR leukemia, 12.3 µM; in the assay on T-47D breast, 9.92 µM.
`CCN(CCN(CC)C(=O)Nc1ccccc1)C(=O)Nc1ccccc1`: the TGI in the assay on 786-0 renal, with BT-549 breast, in the assay with CCRF-CEM leukemia, in the assay on M14 melanoma, in the assay with RXF 393 renal and in the assay with SK-MEL-28 melanoma was above 100 µM throughout. Besides, the TGI in the assay on SR leukemia and with T-47D breast was above 100 µM throughout.
On to `CCc1ccc2c(c1)N(CC(C)CN(C)C)c1ccccc1S2` (configuration not stated), for which the TGI in the assay with 786-0 renal is 12.2 µM; in the assay with BT-549 breast, 26.5 µM; in the assay with CAKI-1 renal, 18.3 µM; in the assay with CCRF-CEM leukemia, 4.99 µM; with M14 melanoma, 4.12 µM; with RXF 393 renal, 10.3 µM. Further, the TGI in the assay with SK-MEL-28 melanoma is 5.45 µM; with SR leukemia, 11.4 µM; in the assay with T-47D breast, 10.7 µM.
With `O=C1N[C@@H]2C(=C[C@H](O)[C@@H](O)[C@H]2O)c2cc3c(c(O)c21)OCO3`, the TGI in the assay on CAKI-1 renal is 0.0735 µM; with CCRF-CEM leukemia, 0.51 µM; in the assay with DLD-1 colon, 0.0751 µM; in the assay on DMS 273 small cell lung, 0.145 µM; in the assay on M19-MEL melanoma it was 0.0771 µM; with SK-MEL-28 melanoma, 0.0944 µM. Also, the TGI with SNB-78 CNS came out at 0.399 µM.
With `CO/N=C1/c2sccc2[C@H](NC(=O)C(Cc2ccccc2)NC(=O)OC(C)(C)C)[C@@H]1O` (some centres not stated), the TGI with BT-549 breast, in the assay on CAKI-1 renal, in the assay on CCRF-CEM leukemia, in the assay with M14 melanoma, in the assay with RXF 393 renal and with SK-MEL-28 melanoma was above 100 µM throughout. Also, the TGI with SR leukemia and in the assay on T-47D breast was above 100 µM in each case.
As for `O=C(c1ccco1)N(C(=O)N1CCN(c2ccccc2)CC1)S(=O)(=O)c1ccccc1`, the TGI was above 100 µM in the assay with 786-0 renal; 87.6 µM in the assay with BT-549 breast; 57.8 µM in the assay with CAKI-1 renal; 87.6 µM with CCRF-CEM leukemia; 60.4 µM in the assay with M14 melanoma; above 100 µM in the assay with SK-MEL-28 melanoma. The TGI with SR leukemia is 51.4 µM; in the assay on T-47D breast, 61 µM.
For the compound `O=C1NC2CCCCCC2C12CCCCC2` (configuration not stated), the TGI in the assay with CCRF-CEM leukemia, with DLD-1 colon, with M14 melanoma, in the assay on M19-MEL melanoma, in the assay with RXF 393 renal and in the assay on SK-MEL-28 melanoma was above 100 µM in each case. Moreover, the TGI in the assay with SNB-78 CNS and in the assay on SR leukemia was above 100 µM throughout.
Turning to `COC(=O)C(Cc1c[nH]c2ccccc12)N=C1Nc2ccncc2S(=O)(=O)N1c1cccc(OC(C)C)c1` (configuration not stated), the TGI in the assay on 786-0 renal, in the assay with BT-549 breast, with CAKI-1 renal, in the assay with CCRF-CEM leukemia, in the assay on M14 melanoma and in the assay on RXF 393 renal was above 100 µM in each case. Also, the TGI with SK-MEL-28 melanoma was above 100 µM; in the assay on SR leukemia, 79.7 µM; with T-47D breast, above 100 µM.
Take `N#Cc1nc(C#N)n(S(=O)(=O)c2ccccc2)c1NS(=O)(=O)c1ccccc1`: the TGI with 786-0 renal was above 100 µM; in the assay on BT-549 breast, above 100 µM; in the assay on CAKI-1 renal, above 57.7 µM; in the assay with CCRF-CEM leukemia, above 100 µM; in the assay with M14 melanoma, above 100 µM; in the assay with RXF 393 renal, above 100 µM. Further, the TGI with SK-MEL-28 melanoma, with SR leukemia and in the assay on T-47D breast was above 100 µM in each case.
As for `O=C1Cc2c([nH]c3ccc(C(=O)O)cc23)-c2ccccc2N1`, the TGI with 786-0 renal, in the assay with BT-549 breast, in the assay on CAKI-1 renal, in the assay with CCRF-CEM leukemia, in the assay with M14 melanoma and in the assay on SK-MEL-28 melanoma was above 100 µM throughout. Also, the TGI in the assay with SR leukemia and in the assay with T-47D breast was above 100 µM throughout.
Take `COc1cccc(/N=N/C(=NNC(=O)c2ccc(C)cc2)c2ccc(N(C)C)cc2)c1`: the TGI with 786-0 renal, in the assay on BT-549 breast, in the assay on CAKI-1 renal, with CCRF-CEM leukemia, in the assay on M14 melanoma and with SK-MEL-28 melanoma was above 100 µM throughout. Besides, the TGI in the assay on SR leukemia and in the assay on T-47D breast was above 100 µM in each case.
As to `Cc1cc2c(cc1C)[n+](=O)c(C(=O)c1ccccc1)c(C(F)(F)F)n2[O-]`, the TGI with 786-0 renal came out at 14.7 µM; with BT-549 breast, 23.9 µM; with CAKI-1 renal, 2.42 µM; in the assay with CCRF-CEM leukemia, 8.52 µM; in the assay with M14 melanoma, 16.5 µM; in the assay with RXF 393 renal, 12.9 µM. Besides, the TGI in the assay with SK-MEL-28 melanoma was 16.4 µM; with SR leukemia it was 2.9 µM; in the assay with T-47D breast it was 5.08 µM.
With `COc1ccc(CNc2cc(=O)n(C)c(=O)[nH]2)cc1`, the TGI in the assay with 786-0 renal, in the assay with BT-549 breast, in the assay with CAKI-1 renal, in the assay with CCRF-CEM leukemia, in the assay on M14 melanoma and with RXF 393 renal was above 100 µM throughout. Also, the TGI in the assay with SK-MEL-28 melanoma, in the assay on SR leukemia and in the assay on T-47D breast was above 100 µM each time.
